Measurements published in patent publication US5514668A (priority 1989, dated 1996).
Entries after “also recorded” stand apart in the source; their conditions may differ.

What was measured:
mice = assay: Toxicity on intravenous injection in mice
Procedure: The content of free crown ether compound in this product was not analysed.
(§1) The product A was at a concentration of 1% injected intraveneously in mice which each received a dose of 0.4 ml corresponding to 32×10^-4 g crown ether.
The product B was tested similarily but at a concentration of 10%. The dose was here 0.4 ml corresponding to 6.0×10^-3 g crown ether compound. The content of free crown ether compound in this dose amounted to 1.2×10^-4 g.
Two series of comparison tests were also made with the crown ether monomer.
In the first test benzo-18-crown-6 was injected as aqueous solution having a concentration of 0.8% at a dose of 0.4 ml per animal, corresponding to 32×10^-4 g crown ether.
In the ether comparison test benzo-18-crown-6 was used at a concentration of 0.08%. Also here the dose was 0.4 ml corresponding to 3.2×10^-4 g crown ether.

Coccidia [1] = settings: tissue culture; J. Med. Chem. 1983, 26, 590-592; cited from earlier work
Coccidia [2] = settings: poultry, admixed in the fodder; cited from earlier work
[3] = Elimination in urine of mice (UV analysis); type: in vivo; settings: i.v., 1% solution, 0.4 ml
Procedure: as §1

[4] = Complexing capability, diffusion test using a membrane cell; type: binding; settings: aqueous, alcohol containing solution; relative to free crown ether
[5] = test system: foot-and-mouth desease virus, type C, Turup; design: species or system Turup; Guinea pigs; settings: guinea pig, in vivo
[6] = Elimination of Cs^137 from blood of mice into urine; type: in vivo
Procedure: Tests were performed at Fors.o slashed.gsstation Ris.o slashed., Department of Health, Roskilde, Denmark, to investigate the ability of the dextran-crown ether compounds to remove radioactive cesium, Cs^137, from the blood of mice.
Three tests were run, each using five mice.
As basis solution for use as injection liquid or for use as basis for the preparation of such, an aqueous 0,9% sodium chloride solution was used containing Cs^137 in an amount corresponding to 3000 Bq/ml.
In each test the mice were kept in a cage, the bottom of which was a net below which a funnel was arranged for collecting the urine of the mice. After each collection of urine the bottom was flushed with water, and urine plus flushing water were collected and diluted with water to 20 ml before the radioactivity were determined by means of a Geiger counting apparatus.
By this test each mouse was injected with 0,1 ml af the basis solution and thus received 300 Bq Cs^137. The time for this injection, below designated to, was 11:30 .
After one hour each mouse was injected with 0,4 ml of a 6 w/v-% aqueous solution of the dextran-O-carbonylbenzo-18-crown-6-product produced according to Example 1, corresponding to 24 mg of this product per mouse.
Collection of urine with subsequent determination of radioactivity was initiated one hour and […], corresponding to 1.35 hours after to and was continued as it appears from Table I below.
47.81 hours after to a further injection of 0.5 ml of the 6%'s dextran-crown ether-solution was made on each mouse and the collection of urine and determination of radioactivity therein were continued.
At this test the injection solution was a mixture of 2 ml of the above mentioned Cs^137 -containing solution and 8 ml of the dextran-crown ether solution used in Test I.
Each mouse was injected with 0,5 ml of the mixture and thus received 300 Bq Cs^137 and 24 mg dextran-crown ether. Collection of urine and further crown ether injection (0,5 ml 6% solution) was made as in Test 1 as it appears from Table II below.
By this comparison test the injection solution was a mixture of 2 ml of the above mentioned basis solution containing 3000 Bq/ml Cs^137 and 8 ml aqueous 0,9% by weight NaCl-solution. Each mouse was injected using […] of the mixture and thus received 300 Bq Cs^137.

[7] = test system: foot- and -mouth disease virus, type A; settings: mouse, in vivo
[8] = test system: foot-and-mouth desease virus, type A, Holland; design: species or system Holland; Guinea pigs; settings: guinea pig, in vivo, sc
[9] = Complexing capability, cesium binding in dialysis hose
Procedure: The resulting solution was transferred to a hose for dialysis having a pore radius of approximately 1.5 nm.
After 12 hours samples taken from the liquid inside the dialysis hose and from the liquid outside the hose in the graduated glass, resp., were measured by means of a gamma counter operating at 0.66 MeV, to determine the ratio of the Cs concentration inside the dialysis hose to the Cs concentration outside the hose. On the basis of these determinations the corresponding amounts of Cs in the two liquids were calculated.

[10] = 0.08% solution, 0.4 ml, 3.2×10^-4 g crown ether

c1ccc2c(c1)OCCOCCOCCOCCOCCO2 [benzo-18-crown-6]
duration of heavy convulsions (mice; [10]): approximately 15 minutes
symptoms and survival (mice; [10]): heavy convulsions appeared; also recorded: the animals survived
reaction compared with product (B) (mice; 3.2×10^-4 g pure compound versus product (B) containing 1.2×10^-4 g unbound): significantly heavier reaction
death of animals (mice; aqueous solution 0.8%, 0.4 ml, 32×10^-4 g crown ether): The animals died immediately before the injection was completed

c1ccc2c(c1)OCCOCCOCCOCCOc1ccccc1OCCOCCOCCOCCO2 [dibenzo-30-crown-10]
anti-coccidial activity (Coccidia [1]): have an anti-coccocidal activity in tissue culture tests
in vivo anti-coccidial effect (Coccidia [2]): no in vivo effect was demonstrated

T40-Dextran-O-carbonylbenzo-18-crown-6 [product A]
signs of illness (mice; i.v., 1% solution, 0.4 ml): did not show any sign of illness
time after which compound was excreted substantially completely in urine [3]: 3 to 5 h

T40-Dextran-O-carbonylbenzo-18-crown-6 [product B]
symptoms after injection (mice; i.v., 10% solution, 0.4 ml): subdued after having received this dose and had bristled furs; also recorded: thereafter they did not shown any symptoms
duration of being subdued with bristled furs (mice; i.v., 10% solution, 0.4 ml, several animals): approximately 30 minutes

dextran-O-carbonylbenzo-18-crown-6 [dextran-crown ether]
capability of complexing metals, such as sodium ions [4]: has been maintained
antiviral activity [5]: exhibited an antiviral activity at all three days
radioactivity in urine + flushing water ([6]; Test 1, 1.35 hours after to, 24 mg per mouse given one hour after Cs^137): 6978 counts
radioactivity in urine + flushing water ([6]; Test 1, 4.63 hours after new to (second injection)): 3533 counts
radioactivity in urine + flushing water ([6]; Test 1, 4.83 hours after to): 3684 counts
radioactivity in urine + flushing water ([6]; Test 1, 8.67 hours after new to (second injection)): 2937 counts
radioactivity in urine + flushing water ([6]; Test 1, 8.88 hours after to): 8280 counts
radioactivity in urine + flushing water ([6]; Test 1, 20.07 hours after to): 17001 counts
radioactivity in urine + flushing water ([6]; Test 1, 22.28 hours after new to (second injection)): 6391 counts
radioactivity in urine + flushing water ([6]; Test 1, 44.92 hours after to): 17368 counts
radioactivity in urine + flushing water ([6]; Test 1, 47.78 hours after to): 2213 counts
Counts, total (accumulated) ([6]; Test 1, time 1.35): 6978 counts
Counts, total (accumulated) ([6]; Test 1, time 4.83): 10662 counts
Counts, total (accumulated) ([6]; Test 1, time 20.07): 35943 counts
Counts, total (accumulated) ([6]; Test 1, time 44.92): 53311 counts
Counts, total (accumulated) ([6]; Test 1, time 47.78): 55524 counts
Counts, total (accumulated) ([6]; Test 1, time 52.41): 59057 counts
Counts, total (accumulated) ([6]; Test 1, time 56.45): 61994 counts
Counts, total (accumulated) ([6]; Test 1, time 67.06): 68385 counts
radioactivity in urine + flushing water ([6]; Test 2, 0.87 hours after to, 24 mg per mouse injected in mixture with Cs^137): 4498 counts
radioactivity in urine + flushing water ([6]; Test 2, 4.33 hours after new to (second injection)): 3659 counts
radioactivity in urine + flushing water ([6]; Test 2, 4.62 hours after to): 11634 counts
radioactivity in urine + flushing water ([6]; Test 2, 8.40 hours after new to (second injection)): 3222 counts
radioactivity in urine + flushing water ([6]; Test 2, 8.65 hours after to): 8566 counts
radioactivity in urine + flushing water ([6]; Test 2, 19.82 hours after to): 16805 counts
radioactivity in urine + flushing water ([6]; Test 2, 22.08 hours after new to (second injection)): 4966 counts
radioactivity in urine + flushing water ([6]; Test 2, 44.65 hours after to): 12901 counts
radioactivity in urine + flushing water ([6]; Test 2, 47.53 hours after to): 2728 counts
Counts, total (accumulated) ([6]; Test 2, time 0.87): 4498 counts
Counts, total (accumulated) ([6]; Test 2, time 8.65): 24698 counts
Counts, total (accumulated) ([6]; Test 2, time 19.82): 41503 counts
Counts, total (accumulated) ([6]; Test 2, time 44.65): 54411 counts
Counts, total (accumulated) ([6]; Test 2, time 47.53): 57139 counts
Counts, total (accumulated) ([6]; Test 2, time 51.86): 60798 counts
Counts, total (accumulated) ([6]; Test 2, time 55.93): 64020 counts
Counts, total (accumulated) ([6]; Test 2, time 69.53): 68986 counts
speed of excretion of Cs^137 after the second injection ([6]; approximately 8 hours after second injection): somewhat increased speed of excretion
more radioactive Cs excreted than in comparison Test 3 ([6]; approximately 70 hours, Tests 1 and 2 versus Test 3): approximately 17%
speed of elimination of Cs^137 ([6]; first 5-8 hours after the first injection): significantly increased
effect on viral activity [7]: impedes the viral activity
significance of titre difference versus virus control [7]: not significant
reduction of the number of blisters [8]: a reduction of the number of blisters was obtained

dextran-hydroxyethylbenzo-18-crown-6
capability of catching and binding cesium ions [9]: substantial capability of catching and binding cesium ions
Cs in liquid inside the hose ([9]; after 12 h): 658 µg
Cs in liquid outside the hose ([9]; after 12 h): 1362 µg
Cs conc. inside hose/Cs conc. outside hose ([9]; after 12 h, gamma counter): 1.2
Cs conc. inside hose/Cs conc. outside hose ([9]; initially): 1
Cs in liquid inside the hose ([9]; initially): 520 µg
Cs in liquid outside the hose ([9]; initially): 1500 µg
